Assay [1] deals with T1, CFR1R receptor (Homo sapiens, UniProt P34998).
T1 construct: host or cells: CHO-K1 (clone 2)
T1 sequence (P34998 24-415): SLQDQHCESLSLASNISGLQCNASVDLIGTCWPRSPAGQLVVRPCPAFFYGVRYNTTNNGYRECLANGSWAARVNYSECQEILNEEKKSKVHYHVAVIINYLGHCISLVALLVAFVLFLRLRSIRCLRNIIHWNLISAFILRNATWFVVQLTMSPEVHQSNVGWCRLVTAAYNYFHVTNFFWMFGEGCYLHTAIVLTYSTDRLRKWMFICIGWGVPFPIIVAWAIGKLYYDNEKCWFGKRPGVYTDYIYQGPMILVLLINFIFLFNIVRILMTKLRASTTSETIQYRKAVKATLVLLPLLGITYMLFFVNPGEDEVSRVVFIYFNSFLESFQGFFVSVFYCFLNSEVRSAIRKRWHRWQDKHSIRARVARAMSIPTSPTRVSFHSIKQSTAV
The experiment in a line: Activity at anti-target CFR1R receptor, cAMP assay in CRF1R-overexpression CHO-K1 cells. The class given is cell-based. The following applies: 100% = Sauvagine at 100 nM; for EC50: cAMP. The gist of the method: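 Uses frozen stocks of CHO-K1 clone 2 cells overexpressing human CRF1R, plated at 4000 cells/well final, with cAMP measured by the same protocol as the TeloHAEC line. Full-activation control: 100 nM Sauvagine.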

For assay [2], the target named is T2, human CRF2a receptor (Homo sapiens, UniProt Q13324).
T2 construct: expressed in transfected cells; host or cells: TeloHEAC cells
T2 sequence (Q13324 1-411): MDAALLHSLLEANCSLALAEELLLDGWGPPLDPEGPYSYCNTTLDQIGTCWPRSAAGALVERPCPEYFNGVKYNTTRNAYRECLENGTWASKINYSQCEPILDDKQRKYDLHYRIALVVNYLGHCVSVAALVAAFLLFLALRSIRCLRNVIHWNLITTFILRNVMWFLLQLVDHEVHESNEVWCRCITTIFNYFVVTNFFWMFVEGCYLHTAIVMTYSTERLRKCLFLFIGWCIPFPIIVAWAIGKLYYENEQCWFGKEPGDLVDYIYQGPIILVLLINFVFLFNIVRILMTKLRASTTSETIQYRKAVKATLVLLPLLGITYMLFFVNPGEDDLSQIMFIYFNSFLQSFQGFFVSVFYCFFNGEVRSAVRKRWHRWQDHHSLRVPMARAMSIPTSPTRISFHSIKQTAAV
The experiment in a line: Activity at human CRF2a receptor, cAMP functional assay in TeloHEAC cells. The following applies: TeloHEAC cells stably expressing human CRF2a receptor, relative to urocortin 2 (100 nM = 100%). The class given is cell-based. An outline of the steps:
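cAMP accumulation was measured by HTRF 665/620 nm ratio after 30 min at 37° C compound exposure (16 twofold dilutions) of CRF2a-expressing TeloHEAC cells, 10000/well, in HEPES-buffered HBSS plus IBMX. Activity was normalised to urocortin 2 at 100 nM (100%), and EC50 was the concentration giving half-maximal activation.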

*1 amine or outer side, *2 acyl side, *3 side chain or, on linkers, in order; H or OH if unused. Where a SMILES comes first, the peptide text is derived from it. Side-chain parts run from the residue outwards. [ ]: non-standard residue; d: D form. The star is where a group is joined. C16 diacid = O=C(O)CCCCCCCCCCCCCCC(=O)*; γGlu = O=C(O)[C@H](CCC(=O)[*:2])N[*:1]; C14 diacid = O=C(O)CCCCCCCCCCCCC(=O)*; Api = NC1(C(=O)O)CCNCC1; Aib = CC(C)(N)C(=O)O A value given as a limit tells only on which side of the number the result lay.

For the compound `CC[C@H](C)[C@H](NC(C)=O)C(=O)N[C@H](C(=O)N[C@@H](CC(C)C)C(=O)N[C@@H](CO)C(=O)N[C@@H](CC(C)C)C(=O)N[C@@H](CC(=O)O)C(=O)N[C@@H](C(=O)N1CCC[C@H]1C(=O)N[C@H](C(=O)N[C@@H](CCCCN)C(=O)N[C@@H](CC(C)C)C(=O)N[C@@H](CCCCNC(=O)CC[C@H](NC(=O)CCCCCCCCCCCCCCC(=O)O)C(=O)O)C(=O)N[C@@H](C)C(=O)N[C@H](C(=O)N[C@@H](CC(C)C)C(=O)N[C@@H](CC(C)C)C(=O)N[C@@H](CCC(=O)O)C(=O)N[C@@H](CCC(N)=O)C(=O)N[C@@H](CCC(=O)O)C(=O)N[C@@H](CCCCN)C(=O)N[C@@H](CCC(N)=O)C(=O)N[C@@H](CCCCN)C(=O)N[C@@H](CCCCN)C(=O)N[C@@H](CCC(N)=O)C(=O)N[C@@H](CCCNC(=N)N)C(=O)N[C@@H](CCC(=O)O)C(=O)N[C@@H](CCC(N)=O)C(=O)N[C@@H](C)C(=O)N[C@@H](CCC(=O)O)C(=O)N[C@H](C(=O)N[C@@H](CC(N)=O)C(=O)NC(C)(C)C(=O)N[C@@H](CCC(N)=O)C(=O)N[C@H](C(=O)N[C@@H](CC(C)C)C(=O)N[C@@H](C)C(=O)N[C@@H](CCC(N)=O)C(=O)N[C@H](C(N)=O)C(C)C)[C@@H](C)CC)[C@@H](C)O)[C@@H](C)CC)[C@@H](C)CC)C(C)C)C(C)C` [compound 164] (Ac-IVLSLD[dV]PIKLK([γGlu-C16 diacid])AILLEQEKQKKQREQAETN[Aib]QILAQV-NH2), in assay [1], the “Emax (% I)” value worked out at 14 % I and the EC50 was over 250 nM. The midpoint of the response in assay [2], the EC50, lay at 2.43 nM.
In the case of `CC[C@H](C)[C@H](NC(C)=O)C(=O)N[C@H](C(=O)N[C@@H](CC(C)C)C(=O)N[C@@H](CO)C(=O)N[C@@H](CC(C)C)C(=O)N[C@@H](CC(=O)O)C(=O)N[C@@H](C(=O)N1CCC[C@H]1C(=O)N[C@H](C(=O)N[C@@H](CCCCN)C(=O)N[C@@H](CC(C)C)C(=O)N[C@@H](CCCCNC(=O)CC[C@H](NC(=O)CCCCCCCCCCCCCCC(=O)O)C(=O)O)C(=O)N[C@@H](CCCCN)C(=O)N[C@H](C(=O)N[C@@H](CC(C)C)C(=O)N[C@@H](CC(C)C)C(=O)N[C@@H](CCC(=O)O)C(=O)N[C@@H](CCC(N)=O)C(=O)N[C@@H](CCC(=O)O)C(=O)N[C@@H](CCCCN)C(=O)N[C@@H](CCC(N)=O)C(=O)N[C@@H](C)C(=O)N[C@@H](CCCCN)C(=O)N[C@@H](CCC(N)=O)C(=O)N[C@@H](CCCNC(=N)N)C(=O)N[C@@H](CCC(=O)O)C(=O)N[C@@H](CCC(N)=O)C(=O)N[C@@H](C)C(=O)N[C@@H](CCC(=O)O)C(=O)N[C@H](C(=O)N[C@@H](CC(N)=O)C(=O)NC(C)(C)C(=O)N[C@@H](CCC(N)=O)C(=O)N[C@H](C(=O)N[C@@H](CC(C)C)C(=O)N[C@@H](C)C(=O)N[C@@H](CCC(N)=O)C(=O)N[C@H](C(N)=O)C(C)C)[C@@H](C)CC)[C@@H](C)O)[C@@H](C)CC)[C@@H](C)CC)C(C)C)C(C)C` [compound 166] (Ac-IVLSLD[dV]PIKLK([γGlu-C16 diacid])KILLEQEKQAKQREQAETN[Aib]QILAQV-NH2), in assay [1], the “Emax (% I)” value is given as 5 % I and the EC50 was over 250 nM. Besides, the EC50 in assay [2] turned out to be 0.77 nM.
The like results for `CC[C@H](C)[C@H](NC(C)=O)C(=O)N[C@H](C(=O)N[C@@H](CC(C)C)C(=O)N[C@@H](CO)C(=O)N[C@@H](CC(C)C)C(=O)N[C@@H](CC(=O)O)C(=O)N[C@@H](C(=O)N1CCC[C@H]1C(=O)N[C@H](C(=O)N[C@@H](CCCCN)C(=O)N[C@@H](CC(C)C)C(=O)N[C@@H](CCCCNC(=O)CC[C@H](NC(=O)CCCCCCCCCCCCCCC(=O)O)C(=O)O)C(=O)N[C@@H](CCCCN)C(=O)N[C@H](C(=O)N[C@@H](CC(C)C)C(=O)N[C@@H](CC(C)C)C(=O)N[C@@H](CCC(=O)O)C(=O)N[C@@H](CCC(N)=O)C(=O)N[C@@H](CCC(=O)O)C(=O)N[C@@H](CCCCN)C(=O)N[C@@H](CCC(N)=O)C(=O)N[C@@H](CCCCN)C(=O)N[C@@H](CCCCN)C(=O)N[C@@H](CCC(N)=O)C(=O)N[C@@H](C)C(=O)N[C@@H](CCC(=O)O)C(=O)N[C@@H](CCC(N)=O)C(=O)N[C@@H](C)C(=O)N[C@@H](CCC(=O)O)C(=O)N[C@H](C(=O)N[C@@H](CC(N)=O)C(=O)NC(C)(C)C(=O)N[C@@H](CCC(N)=O)C(=O)N[C@H](C(=O)N[C@@H](CC(C)C)C(=O)N[C@@H](C)C(=O)N[C@@H](CCC(N)=O)C(=O)N[C@H](C(N)=O)C(C)C)[C@@H](C)CC)[C@@H](C)O)[C@@H](C)CC)[C@@H](C)CC)C(C)C)C(C)C` [compound 167] (Ac-IVLSLD[dV]PIKLK([γGlu-C16 diacid])KILLEQEKQKKQAEQAETN[Aib]QILAQV-NH2) were, in that order, 7 % I, over 250 nM and 1.15 nM.
In the case of `CC[C@H](C)[C@H](NC(C)=O)C(=O)N[C@H](C(=O)N[C@@H](CC(C)C)C(=O)N[C@@H](CO)C(=O)N[C@@H](CC(C)C)C(=O)N[C@@H](CC(=O)O)C(=O)N[C@@H](C(=O)N1CCC[C@H]1C(=O)N[C@H](C(=O)N[C@@H](CCCCN)C(=O)N[C@@H](CC(C)C)C(=O)N[C@@H](CCCCNC(=O)CC[C@H](NC(=O)CCCCCCCCCCCCCCC(=O)O)C(=O)O)C(=O)N[C@@H](CCCCN)C(=O)N[C@H](C(=O)N[C@@H](CC(C)C)C(=O)N[C@@H](CC(C)C)C(=O)N[C@@H](CCC(=O)O)C(=O)N[C@@H](CCC(N)=O)C(=O)N[C@@H](CCC(=O)O)C(=O)N[C@@H](CCCCN)C(=O)N[C@@H](CCC(N)=O)C(=O)N[C@@H](CCCCN)C(=O)N[C@@H](CCC(=O)O)C(=O)N[C@@H](CCC(N)=O)C(=O)N[C@@H](CCCNC(=N)N)C(=O)N[C@@H](CCC(=O)O)C(=O)N[C@@H](CCC(N)=O)C(=O)N[C@@H](C)C(=O)N[C@@H](CCC(=O)O)C(=O)N[C@H](C(=O)N[C@@H](CC(N)=O)C(=O)NC(C)(C)C(=O)N[C@@H](CCC(N)=O)C(=O)N[C@H](C(=O)N[C@@H](CC(C)C)C(=O)N[C@@H](C)C(=O)N[C@@H](CCC(N)=O)C(=O)N[C@H](C(N)=O)C(C)C)[C@@H](C)CC)[C@@H](C)O)[C@@H](C)CC)[C@@H](C)CC)C(C)C)C(C)C` [compound 168] (Ac-IVLSLD[dV]PIKLK([γGlu-C16 diacid])KILLEQEKQKEQREQAETN[Aib]QILAQV-NH2), the “Emax (% I)” value in assay [1] was determined as 3 % I. Moreover, the EC50 in assay [1] was over 250 nM; in assay [2], 0.8 nM.
As for `CC[C@H](C)[C@H](NC(C)=O)C(=O)N[C@H](C(=O)N[C@@H](CC(C)C)C(=O)N[C@@H](CO)C(=O)N[C@@H](CC(C)C)C(=O)N[C@@H](CC(=O)O)C(=O)N[C@@H](C(=O)N1CCC[C@H]1C(=O)N[C@H](C(=O)N[C@@H](CCCCN)C(=O)N[C@@H](CC(C)C)C(=O)N[C@@H](CCCCNC(=O)CC[C@H](NC(=O)CCCCCCCCCCCCC(=O)O)C(=O)O)C(=O)N[C@@H](CCCCN)C(=O)N[C@H](C(=O)N[C@@H](CC(C)C)C(=O)N[C@@H](CC(C)C)C(=O)N[C@@H](CCC(=O)O)C(=O)N[C@@H](CCC(N)=O)C(=O)N[C@@H](CCC(=O)O)C(=O)N[C@@H](CCCCN)C(=O)N[C@@H](CCC(N)=O)C(=O)N[C@@H](CCCCN)C(=O)N[C@@H](C)C(=O)N[C@@H](CCC(N)=O)C(=O)N[C@@H](CCCNC(=N)N)C(=O)N[C@@H](CCC(=O)O)C(=O)N[C@@H](CCC(N)=O)C(=O)N[C@@H](C)C(=O)N[C@@H](CCC(=O)O)C(=O)N[C@H](C(=O)N[C@@H](CC(N)=O)C(=O)NC1(C(=O)N[C@@H](CCC(N)=O)C(=O)N[C@H](C(=O)N[C@@H](CC(C)C)C(=O)N[C@@H](C)C(=O)N[C@@H](CCC(N)=O)C(=O)N[C@H](C(N)=O)C(C)C)[C@@H](C)CC)CCNCC1)[C@@H](C)O)[C@@H](C)CC)[C@@H](C)CC)C(C)C)C(C)C` [compound 169] (Ac-IVLSLD[dV]PIKLK([γGlu-C14 diacid])KILLEQEKQKAQREQAETN[Api]QILAQV-NH2), in assay [1], the “Emax (% I)” value turned out to be 13 % I and the EC50 was over 250 nM. In addition, a half-maximal effect in assay [2] (EC50) was put at 1.34 nM.

(Values after US20260001928A1 (CORTERIA PHARMACEUTICALS, priority 2022, published 2026).)
